The record followed here is ChEMBL document CHEMBL1148411 (J Med Chem, 2004).

Numbered stars: 1 amine (or outer) side, 2 acyl side, 3 side chain; on linkers, the order of the positions; unused ones are H or OH. Bridge positions count the residues as written; N and C are the ends. Square brackets hold non-standard residues; d marks the D form. Peptide text beside a SMILES is read from it. Phe(4-NH2) = Nc1ccc(C[C@H](N)C(=O)O)cc1; CH2 = C([*:1])[*:2]

The test concerns the target T1, Angiotensin II receptor (AT-1) type-1 (Rattus norvegicus, UniProt P29089+P25095).
T1 sequence (P29089 whole entry): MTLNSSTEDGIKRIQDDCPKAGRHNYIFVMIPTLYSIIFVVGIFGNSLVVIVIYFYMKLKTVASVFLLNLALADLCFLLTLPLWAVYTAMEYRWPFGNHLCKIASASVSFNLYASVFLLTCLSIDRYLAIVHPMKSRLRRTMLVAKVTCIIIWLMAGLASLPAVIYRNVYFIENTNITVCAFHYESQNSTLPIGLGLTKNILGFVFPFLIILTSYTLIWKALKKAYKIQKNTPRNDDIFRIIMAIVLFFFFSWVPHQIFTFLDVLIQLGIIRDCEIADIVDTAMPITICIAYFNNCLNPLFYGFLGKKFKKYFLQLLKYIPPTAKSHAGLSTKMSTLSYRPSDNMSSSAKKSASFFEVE
T1 sequence (P25095 whole entry): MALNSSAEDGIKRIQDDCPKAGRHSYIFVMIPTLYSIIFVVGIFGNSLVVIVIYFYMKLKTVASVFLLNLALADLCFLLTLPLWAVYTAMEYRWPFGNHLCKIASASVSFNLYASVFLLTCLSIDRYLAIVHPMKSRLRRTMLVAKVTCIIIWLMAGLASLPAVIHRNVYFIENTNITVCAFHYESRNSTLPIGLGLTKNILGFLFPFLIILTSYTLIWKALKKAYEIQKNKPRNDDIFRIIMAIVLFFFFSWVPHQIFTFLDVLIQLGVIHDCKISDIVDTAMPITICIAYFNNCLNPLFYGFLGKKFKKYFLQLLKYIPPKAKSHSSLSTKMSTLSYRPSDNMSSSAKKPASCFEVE
In words: Binding affinity for angiotensin II receptor type 1 using [125I]- Ang II in rat liver membranes. The format is cell membranes, Membrane.
As for `CC(C)[C@H](NC(=O)[C@H](C)NC(=O)[C@@H](N)CC(=O)O)C(=O)Nc1ccc2c(c1)CN(CC(=O)N[C@@H](Cc1c[nH]cn1)C(=O)N1CCC[C@H]1C(=O)N[C@@H](Cc1ccccc1)C(=O)O)C(=O)[C@H](Cc1ccc(O)cc1)N2`, the Ki (as a rule, a dissociation constant, usually derived from enzyme kinetics or from competition with a known ligand) was greater than 10 µM.

Regarding `CC(C)[C@H](NC(=O)[C@H](CCCN=C(N)N)NC(=O)[C@@H](N)CC(=O)O)C(=O)N[C@@H](Cc1ccc(O)cc1)C(=O)Nc1ccc2c(c1)CN(CC(=O)N[C@@H](Cc1ccccc1)C(=O)O)C(=O)[C@H](Cc1c[nH]cn1)N2`, the Ki is greater than 10 µM.

Compound `N=C(N)NCCC[C@H](NC(=O)[C@@H](N)CC(=O)O)C(=O)N[C@H]1CSCSC[C@@H](C(=O)N[C@@H](Cc2cnc[nH]2)C(=O)N2CCC[C@H]2C(=O)N[C@@H](Cc2ccccc2)C(=O)O)NC(=O)[C@H](Cc2ccc(O)cc2)NC1=O` (H-DRCYCHPF-OH; linker 3-5 via CH2) returned a Ki of 0.044 µM.

The compound `CC[C@H](C)[C@H](NC(=O)[C@H](Cc1ccc(O)cc1)NC(=O)[C@@H](NC(=O)[C@H](CCCN=C(N)N)NC(=O)[C@@H](N)CC(=O)O)C(C)C)C(=O)N[C@@H](Cc1ccc(N)cc1)C(=O)N1CCC[C@H]1C(=O)N[C@@H](Cc1ccccc1)C(=O)O` (H-DRVYI[Phe(4-NH2)]PF-OH) displayed a Ki greater than 10 µM.

On to `CC[C@@H](C)[C@@H](C(=O)N[C@@H](Cc1c[nH]cn1)C(=O)N1CCC[C@H]1C(=O)N[C@@H](Cc1ccccc1)C(=O)O)N1Cc2cc(NC(=O)[C@H](CCCN=C(N)N)NC(=O)[C@@H](N)CC(=O)O)ccc2[C@@H](Cc2ccc(O)cc2)C1=O` (single isomer, unassigned; diastereomer a), for which the Ki was greater than 10 µM.
